Drawing on article PMC6934184, “Selective DNA-PKcs inhibition extends the therapeutic index of localized radiotherapy and chemotherapy” (The Journal of Clinical Investigation, 2019), this text covers inhibition for one molecule.

The target of the assay is T1, MAPK15 (ERK7) (Homo sapiens, UniProt Q8TD08).
T1 construct: purchased Thermo Fisher Scientific (Life Technologies) SelectScreen
As to the kind of experiment: SelectScreen LanthaScreen. In kind it is binding. Conditions: read-out: % displacement. A digest of the protocol:
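SelectScreen broad panel; activity (Z'LYTE, Adapta) plus binding formats. ATP: Km app for CSF1R Z'LYTE; 10 for CAMK1 Adapta. Readout = % per kinase.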
On the technique in general: In TR-FRET formats the signal depends on donor and acceptor labels being close together.

T1 sequence (Q8TD08 whole entry): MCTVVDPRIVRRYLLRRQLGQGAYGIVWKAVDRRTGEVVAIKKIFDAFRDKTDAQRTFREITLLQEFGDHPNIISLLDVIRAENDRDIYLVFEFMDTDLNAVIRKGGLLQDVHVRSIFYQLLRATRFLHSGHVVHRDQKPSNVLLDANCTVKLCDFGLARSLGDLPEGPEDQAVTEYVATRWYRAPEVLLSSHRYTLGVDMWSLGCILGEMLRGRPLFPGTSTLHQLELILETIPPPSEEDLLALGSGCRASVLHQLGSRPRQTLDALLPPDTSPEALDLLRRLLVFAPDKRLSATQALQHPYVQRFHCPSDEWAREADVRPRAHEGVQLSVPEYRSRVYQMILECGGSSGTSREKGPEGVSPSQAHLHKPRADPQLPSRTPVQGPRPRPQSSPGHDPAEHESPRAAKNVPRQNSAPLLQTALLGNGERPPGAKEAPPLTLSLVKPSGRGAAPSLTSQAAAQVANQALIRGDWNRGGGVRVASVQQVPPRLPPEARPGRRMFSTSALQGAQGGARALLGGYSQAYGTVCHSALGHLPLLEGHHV

On to `CN(C(=O)CN1CCOCC1)c1ccc2sc3c(-c4cccc5c(=O)cc(N6CC7CCC(C6)O7)oc45)cccc3c2c1` [NU5455], for which the inhibition at 1 µM turned out to be 3.6%.
